Test results: the supplement of paper PMC5908809

Columns and labels:
[1] = tested on: normal primary NK cells, pool 2 (3 donors) (IL-2 2.5 ng/mL); experiment: drug sensitivity score (DSS) (DSS units); higher = more sensitive; extreme values may be limits of the assay; conditions: 72 h
[2] = tested on: NK-92 (IL-2 2.5 ng/mL); experiment: as above; conditions: 72 h
[3] = tested on: normal primary NK cells, pool 1 (3 donors) (IL-2 2.5 ng/mL); experiment: as above; conditions: 72 h
[4] = tested on: IMC-1 (IL-2 20 ng/mL); experiment: as above; conditions: 72 h
[5] = tested on: SNK-6 (IL-2 2.5 ng/mL); experiment: as above; conditions: 72 h
[6] = tested on: normal primary NK cells, pool 1 (3 donors), resting (IL-2 0 ng/mL); experiment: as above; conditions: 72 h
[7] = tested on: KAI3 (IL-2 2.5 ng/mL); experiment: as above; conditions: 72 h
[8] = tested on: NK-YS (IL-2 2.5 ng/mL); experiment: as above; conditions: 72 h
[9] = tested on: KHYG-1 (IL-2 2.5 ng/mL); experiment: as above; conditions: 72 h
[10] = tested on: DERL-7 (IL-2 2.5 ng/mL); experiment: as above; conditions: 72 h
[11] = tested on: normal primary NK cells, pool 3 (3 donors) (IL-2 2.5 ng/mL); experiment: as above; conditions: 72 h
[12] = tested on: NKL (IL-2 2.5 ng/mL); experiment: as above; conditions: 72 h
[13] = tested on: YT (IL-2 2.5 ng/mL); experiment: as above; conditions: 72 h
[14] = tested on: normal NK cells expanded with K562-aAPC; experiment: percent inhibition of viability; higher = more inhibition; conditions: 72 h, IL-2 2.5 ng/mL
Method: (§1)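 Drug sensitivity and resistance testing on K562-aAPC-expanded normal NK cells: 5 concentrations (10-fold steps over a 10,000-fold range), 72 h at 37 °C, viability by CellTiter-Glo normalised to DMSO and benzethonium chloride controls; DSS from the fitted curve.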

[15] = tested on: normal primary NK cells, pool 2 (3 donors) (IL-2 2.5 ng/mL); experiment: as above; conditions: 72 h
[16] = tested on: NK-92 (IL-2 2.5 ng/mL); experiment: as above; conditions: 72 h
[17] = tested on: normal primary NK cells, pool 1 (3 donors) (IL-2 2.5 ng/mL); experiment: as above; conditions: 72 h
[18] = tested on: IMC-1 (IL-2 20 ng/mL); experiment: as above; conditions: 72 h
[19] = tested on: SNK-6 (IL-2 2.5 ng/mL); experiment: as above; conditions: 72 h
[20] = tested on: normal primary NK cells, pool 1 (3 donors), resting (IL-2 0 ng/mL); experiment: as above; conditions: 72 h
[21] = tested on: KAI3 (IL-2 2.5 ng/mL); experiment: as above; conditions: 72 h
[22] = tested on: NK-YS (IL-2 2.5 ng/mL); experiment: as above; conditions: 72 h
[23] = tested on: KHYG-1 (IL-2 2.5 ng/mL); experiment: as above; conditions: 72 h
[24] = tested on: DERL-7 (IL-2 2.5 ng/mL); experiment: as above; conditions: 72 h
[25] = tested on: normal primary NK cells, pool 3 (3 donors) (IL-2 2.5 ng/mL); experiment: as above; conditions: 72 h
[26] = tested on: NKL (IL-2 2.5 ng/mL); experiment: as above; conditions: 72 h
[27] = tested on: YT (IL-2 2.5 ng/mL); experiment: as above; conditions: 72 h
[28] = tested on: normal NK cells expanded with K562-aAPC; experiment: drug sensitivity score (DSS) (DSS units); higher = more sensitive; extreme values may be limits of the assay; conditions: 72 h; IL-2 2.5 ng/mL
Method: as §1

Nc1nc(Cl)nc2c1ncn2[C@@H]1O[C@H](CO)[C@@H](O)[C@@H]1F [Clofarabine] (max concentration tested 10000 nM)
Conditions | drug sensitivity score
[1] | 31
[2] | 30.5
[3] | 33.7
[4] | 27.6
[5] | 28.5
[6] | 35.8
[7] | 28
[8] | 26.4
[9] | 29.9
[10] | 32.5
[11] | 30.7
[12] | 29.8
[13] | 16.8
[28] | 32.1

percent inhibition of viability [%]
Conditions | 1 nM | 10 nM | 100 nM | 1000 nM | 10000 nM
[14] | -7.69 | 10 | 99.8 | 100 | 101
[15] | 1.6 | 18 | 90.5 | 95 | 96.2
[16] | -17 | 2.38 | 98.2 | 101 | 104
[17] | 1.34 | 32.7 | 95.2 | 96.8 | 97.6
[18] | -5.2 | -10.7 | 83.5 | 99.8 | 100
[19] | -9.36 | -23.6 | 95 | 96.3 | 98.6
[20] | -1.53 | 61.1 | 92.3 | 90.6 | 93.4
[21] | -5.93 | 2 | 84.8 | 100 | 103
[22] | -2.94 | -3.43 | 73.3 | 96.5 | 100
[23] | -5.63 | -3.93 | 98.4 | 101 | 102
[24] | -6.34 | 12.4 | 98.8 | 100 | 100
[25] | -5.8 | 12.6 | 91 | 98.5 | 99.3
[26] | -14.3 | -3.55 | 97.4 | 102 | 105
[27] | -2.64 | -4.64 | 17.5 | 78.8 | 85.4

O=C(CCCCCCNC(=O)c1cnc(N(c2ccccc2)c2ccccc2)nc1)NO [Rocilinostat] (max concentration tested 10000 nM)
Conditions | drug sensitivity score
[1] | 8.8
[2] | 10.4
[3] | 10.4
[4] | 6.83
[5] | 9.9
[6] | 13.4
[7] | 12
[8] | 9.02
[9] | 11.5
[10] | 8.01
[11] | 6.65
[12] | 12.8
[13] | 8.53
[28] | 9.32

percent inhibition of viability [%]
Conditions | 1 nM | 10 nM | 100 nM | 1000 nM | 10000 nM
[14] | -3.43 | -1.33 | -2.48 | 24.8 | 99.9
[15] | -7.32 | -6.43 | 5.49 | 23.4 | 94
[16] | -11.1 | -18.3 | 11.4 | 41 | 102
[17] | 2.06 | 3.65 | 16.7 | 40.9 | 97.5
[18] | -4.44 | -8.29 | -0.57 | 8.19 | 100
[19] | -5.08 | -17.2 | -1.48 | 31.4 | 97.9
[20] | 8.2 | -4.24 | 18.1 | 59.2 | 90.9
[21] | 0.64 | -3.56 | 4.44 | 55.4 | 96.6
[22] | 2.13 | -8.18 | 0.48 | 22.7 | 98.8
[23] | 3.34 | 0.58 | -3.42 | 47.2 | 101
[24] | -3.48 | -3.35 | -1.28 | 14.9 | 99.9
[25] | -3.33 | -0.54 | 6.26 | 8.12 | 96.7
[26] | -10.5 | -16 | -8.09 | 62.8 | 104
[27] | 0.06 | -7.38 | -4.05 | 18.3 | 101

CC/C(=C(\c1ccccc1)c1ccc(OCCN(C)C)cc1)c1ccccc1 [Tamoxifen] (max concentration tested 10000 nM)
Conditions | drug sensitivity score
[1] | 4.53
[2] | 4.46
[3] | 7.04
[4] | 0.37
[5] | 2.32
[6] | 8.03
[7] | 6.93
[8] | 1.92
[9] | 4.33
[10] | 5.15
[11] | 1.21
[12] | 7.22
[13] | 3.65
[28] | 2.77

percent inhibition of viability [%]
Conditions | 1 nM | 10 nM | 100 nM | 1000 nM | 10000 nM
[14] | -7.94 | -6.09 | -3.11 | 5.82 | 37.2
[15] | -3.62 | 2.15 | -3.66 | 4.91 | 68.8
[16] | -11.7 | -1.59 | -5.3 | 2.31 | 75.2
[17] | 1.45 | 8.11 | 7.67 | 12.3 | 89.6
[18] | 2.26 | 1.26 | 1.8 | 5.99 | 14.7
[19] | -6.58 | -17.5 | -11.6 | -6.09 | 51.8
[20] | 2.3 | 22 | 15.1 | 20.6 | 90.1
[21] | -0.42 | -4.09 | 3.87 | 8.65 | 100
[22] | -7.45 | -5.92 | -3.79 | 2.63 | 33.2
[23] | -5.57 | -6.4 | 1.61 | 13.7 | 44.6
[24] | 1.51 | 5.51 | 6.94 | 12.4 | 58.1
[25] | -1.03 | 0.09 | 5.67 | -1.54 | 30.3
[26] | -6.42 | -9.93 | 0.08 | 21.2 | 73.4
[27] | -0.53 | -2.4 | 0.91 | 3.43 | 58.4

Oc1nc(-c2ccc(C(F)(F)F)cc2)nc2c1CSCC2 [XAV-939] (max concentration tested 10000 nM)
Conditions | drug sensitivity score
[1] | 0
[2] | 5.52
[3] | 0
[4] | 3.24
[5] | 8.49
[6] | 0
[7] | 0
[8] | 0
[9] | 0.01
[10] | 0
[11] | 0
[12] | 0.48
[13] | 0
[28] | 1.76

percent inhibition of viability [%]
Conditions | 1 nM | 10 nM | 100 nM | 1000 nM | 10000 nM
[14] | 1.61 | 2.89 | 1.43 | 14.1 | 19.3
[15] | -8.38 | -12 | -5.14 | 5.25 | 5.51
[16] | -10.9 | 2.21 | 17.2 | 22 | 31.4
[17] | 7.73 | 0.81 | -0.78 | 0.58 | 4.2
[18] | -0.75 | 0.78 | 6.56 | 9.99 | 39.2
[19] | -1.06 | -8.2 | 12.5 | 35.6 | 76
[20] | -4.7 | -1.64 | -3.21 | -28.2 | -2.43
[21] | -2.16 | 1.91 | 4.79 | 4.07 | 5.97
[22] | -12.6 | -2.95 | -1.3 | -3.02 | 5.39
[23] | -8.26 | -1.11 | 3.24 | 1.73 | 10.4
[24] | -0.97 | 2.31 | -5.81 | -0.61 | -5.6
[25] | -11 | -5.69 | -2.72 | 0.89 | 10.2
[26] | 1.91 | -6.23 | 10.7 | 20.1 | 4.9
[27] | 4.14 | 5.64 | 7.84 | -1.3 | 6.37
